Laboratory results published in patent US11352399B2, “Peptide for toll-like receptor (TLR) inhibition and pharmaceutical composition comprising same” (GENESEN CO., LTD., priority 2017, dated 2022).

Key:
hPBMC cells = assay: NO secretion in LPS-treated hPBMC cells; assay type: cell-based, human; conditions: together with LPS, FIG. 12(b)
NLRP3 inflammasome [1] = assay: IL-1β secretion (ELISA) in LPS/ATP-treated mBMDM cells; assay type: cell-based, mouse; conditions: TIP1 and LPS/ATP
TLR4 signaling pathways = assay: Western blotting of NF-κB and MAPK in LPS-treated hPBMC cells; assay type: cell-based, human; conditions: LPS together with TIP1
Description: In order to perform Western blotting, a pre-protein extraction solution (M-PER, Thermo Fisher Scientific Inc.) was mixed with a protease and phosphatase inhibitor mixture, and was added to RAW 264.7 cell or hPBMC cell pellets. The pellets were cooled for 10 minutes, and then the lysates were centrifuged at 16000×g for 10 minutes. Then, NE-PER nuclear and cytoplasmic extraction reagents (Thermo Fisher Scientific Inc.) were used to extract cytoplasmic and nuclear proteins, respectively, and a BCA kit (Sigma-Alderich Co. LLC) was used to measure concentrations of the proteins. Subsequently, the same amounts of proteins were developed on SDS-polyacrylamide gels, and electrophoresis was performed using the Mini-PROTEAN Tetra Cell two-dimensional electrophoresis system (Bio-Rad Laboratories, Hercules, Calif., USA). The membrane was immunoblotted with primary antibodies by gentle shaking overnight at a temperature of 4° C. […] Then, after thorough shaking with PBST, the membrane was incubated with anti-mouse/-rabbit HRP-conjugated secondary antibodies (Thermo Fisher Scientific Inc.) for 2 hours; and the proteins were detected with SuperSignal West Pico ECL solution (Thermo Fisher Scientific Inc.) and were visualized with the Fuji LAS-3000 system (Fujifilm, Tokyo, Japan). […]

[2] = tested on: mBMDM cells (Poly(I:C)-induced); assay: Poly(I:C)-induced IFN-β generation in mBMDM cells; assay type: cell-based, mouse
NLRP3 inflammasome [3] = assay: Western blotting of NLRP3 inflammasome molecules in LPS/ATP-treated THP1 cells; assay type: cell-based, human
[4] = biological target: T1, BB-loop and C-terminal region of the TIR domain of TLR4 (Homo sapiens, UniProt O00206); assay: Surface plasmon resonance (SPR) assay; assay type: binding; conditions: conclusion of Experimental Example 8; no SPR constants printed
T1 construct: purchased Peptron, Inc; host or cells: chemical synthesis
Description: Surface plasmon resonance assay was performed using a ProteOn XPR36 instrument (Bio-Rad Laboratories, Inc.) with a ProteOn NLC sensor chip. Specifically, a synthetic peptide encoding BB-loop ([…]) (SEQ ID NO: 54) and C-terminal region ([…]) (SEQ ID NO: 55) of the TIR domain was immobilized on the surface of the NLC sensor chip using NeutrAvidin bound to the GLC polymer layer. For a control, PBS supplemented with 0.05% Tween 20, which is a running buffer, was flowed. […] After the measurement, the surface of the sensor chip was regenerated using 0.85% phosphoric acid or PBST. […] The equilibrium dissociation constant KD was calculated using the equation KD=Kd/Ka.

RAW 264.7 cells = assay: NO secretion level in RAW 264.7 culture supernatant; assay type: cell-based, mouse; conditions: TIP1 and LPS
Description: RAW 264.7 cells and mBMDM cells were dispensed into 96-well plates (BD Biosciences) to a cell number of 2×10^5 cells/well and incubated overnight. Then, a NO level of the culture supernatant was measured using a NO detection kit (iNtRON Biotechnology Inc., Seongnam, Korea). Absorbance was measured at 550 nm using a microplate reader spectrophotometer (Molecular Devices Inc.), and the results were analyzed using Softmax Pro 5.3 software (Molecular Devices Inc.).
In addition, according to the method described in Example 2-7, a NO level in the culture supernatant of RAW 264.7 cells was measured using a NO detection kit. The results are illustrated in FIGS. 5(a)-5(c).

TLR9 = biological target: T2, TLR9 (Mus musculus, UniProt Q9EQU3); assay: TNF-α secretion in RAW 264.7 cells with CpG-ODN; assay type: cell-based
T2 construct: host or cells: RAW 264.7
T2 sequence (Q9EQU3 26-1032): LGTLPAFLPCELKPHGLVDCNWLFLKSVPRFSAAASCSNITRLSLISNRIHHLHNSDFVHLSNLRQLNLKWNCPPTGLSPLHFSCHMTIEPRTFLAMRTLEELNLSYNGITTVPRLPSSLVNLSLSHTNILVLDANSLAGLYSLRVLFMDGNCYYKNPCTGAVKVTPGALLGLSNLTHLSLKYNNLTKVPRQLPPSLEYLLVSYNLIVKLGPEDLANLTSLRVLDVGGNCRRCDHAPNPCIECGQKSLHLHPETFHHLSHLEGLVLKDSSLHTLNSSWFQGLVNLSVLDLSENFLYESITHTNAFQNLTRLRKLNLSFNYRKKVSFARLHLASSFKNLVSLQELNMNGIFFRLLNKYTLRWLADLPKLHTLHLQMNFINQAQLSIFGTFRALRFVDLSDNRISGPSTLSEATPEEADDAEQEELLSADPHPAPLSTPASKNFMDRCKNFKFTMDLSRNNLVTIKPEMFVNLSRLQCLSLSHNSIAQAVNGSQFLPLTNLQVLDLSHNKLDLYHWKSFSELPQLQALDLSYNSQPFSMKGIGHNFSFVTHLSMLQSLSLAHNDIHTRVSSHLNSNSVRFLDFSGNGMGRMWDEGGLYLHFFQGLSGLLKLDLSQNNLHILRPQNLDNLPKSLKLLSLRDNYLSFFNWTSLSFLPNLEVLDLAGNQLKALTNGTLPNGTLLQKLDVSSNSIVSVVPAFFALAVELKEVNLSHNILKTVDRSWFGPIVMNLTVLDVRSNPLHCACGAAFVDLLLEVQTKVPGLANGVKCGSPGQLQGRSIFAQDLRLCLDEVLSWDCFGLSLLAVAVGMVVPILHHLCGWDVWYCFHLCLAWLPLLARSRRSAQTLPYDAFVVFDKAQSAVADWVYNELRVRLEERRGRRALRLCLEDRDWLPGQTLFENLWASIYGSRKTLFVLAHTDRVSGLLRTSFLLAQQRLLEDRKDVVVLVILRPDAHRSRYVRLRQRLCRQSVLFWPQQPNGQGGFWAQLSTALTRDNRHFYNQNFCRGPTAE

NLRP3 inflammasome [5] = assay: Western blotting of NLRP3 inflammasome molecules in LPS/ATP-treated mBMDM cells; assay type: cell-based, mouse

RQIKIWFQNRRMKWKKSHCRVLLI (TIP1)
NO secretion level (hPBMC cells): highest decreasing effect on NO secretion level
secretion level of IL-1β (NLRP3 inflammasome [1]): decreased
MAPK activity (phosphorylation of ERK, JNK, p38) (TLR4 signaling pathways): MAPK activity is inhibited
NF-κB activity (Iκ-Bα, Western blotting) (TLR4 signaling pathways): NF-κB activity was inhibited
Poly(I:C)-induced generation of IFN-β [2]: inhibited
intracellular expression level of NLRP3 (NLRP3 inflammasome [3]): remarkably decreased
intracellular expression level of active caspase-1 (10 kDa) (NLRP3 inflammasome [3]): remarkably decreased
intracellular expression level of mature IL-1β (17 kDa) (NLRP3 inflammasome [3]): remarkably decreased
binding to TIR domain regions of TLR4 [4]: binding to the C-terminal tail and the BB loop among the TIR domains of TLR4
extracellular secretion of NO (RAW 264.7 cells): effectively decreased
secretion level of TNF-α (TLR9): decreased
intracellular expression level of NLRP3 (NLRP3 inflammasome [5]): remarkably decreased
intracellular expression level of active caspase-1 (10 kDa) (NLRP3 inflammasome [5]): remarkably decreased
intracellular expression level of mature IL-1β (17 kDa) (NLRP3 inflammasome [5]): remarkably decreased
